Our source for the melting point values is a melting point compilation (Tetko et al.; mined from patent text by program, amines drawn as free bases though some values may be those of a salt).

The term melting point denotes the temperature of the solid-liquid transition. Regarding `C=CCc1cc(CC(=O)O)ccc1OCc1ccc2ccccc2n1`, the melting point is 130 °C.
As for `CC1(COC2CC3C4CCC5=CC(=O)C=CC5(C)C4(F)C(O)CC3(C)C2(O)C(=O)CCl)CO1` (centres undefined), the melting point was in the range of 193 to 236 °C.
Take `CCCOCCOc1cccc(-c2ccc3c(c2)C=C(C(=O)Nc2ccc(CN(C)C4CCOCC4)cc2)CCS3(=O)=O)c1`: the melting point was 166 to 167 °C.
With `CC(C)(C)c1nc(C(=O)c2ncc[nH]2)nc(C(C)(C)C)c1O`, the melting point was in the range of 217 to 220 °C.
Consider `COC(=O)c1ccc(-c2cc3c(Nc4cccc(Cl)c4)ncnc3[nH]2)cc1`, for which the melting point is > 300 °C.
With `Cc1ccc(-c2c(Cl)nc3ncnn3c2NC(C)C)c(F)c1`, the melting point came to 121 °C.
For the compound `CCCc1c(C2CCC(c3ccccc3)(N(C)C)CC2)[nH]c2ccccc12` (centres undefined), the melting point lay in the range of 177 to 181 °C.
Then `CCn1cc(C(=O)OC)c(=O)cc1-c1ccc(N(C)C)c(C)c1`, with 132 to 134 °C; and `O=C(CN1CCc2c([nH]c3ccccc23)C1c1ccccc1)OCc1ccccc1` (centres undefined), with 131 to 132 °C; and `CCOc1ccc(Nc2ncc3cc(-c4c(Cl)cccc4Cl)c(=O)n(CC)c3n2)cc1`, with 192 to 194 °C.
Take `CC(C)(C)C(=O)OCc1nc(-c2ccc3c(c2)Nc2ccccc2S3)cs1`: the melting point was in the range of 120 to 122 °C.
With `COc1cccc(C2=C(CO)C(=O)N(C)CC2)c1`, the melting point was in the range of 81 to 83 °C.
On to `Fc1ccc(-c2cc(-c3ccccc3)c(-c3ccccc3)s2)cc1`, for which the melting point fell in the range of 108 to 110 °C.
`COc1ccc(C(=O)Nc2c(Cl)cncc2Cl)cc1OC1CCCC1` gave a melting point of 153 to 155 °C.
The compound `CC1(C)C(=O)N(c2ccc(C#N)c(C(F)(F)F)c2)C(=O)N1CCCCO` returned a melting point of 102 to 103 °C.
As for `Cc1c(C)c(N2C(=O)c3cc(Cl)c(Cl)cc3C2=O)c(C)c2c1OC(C)(C)C2c1ccccc1` (centres undefined), the melting point lay within 178 to 181 °C.
For `Nc1nc2ccccc2c2c1nc1n2C(COc2ccccc2)COC1` (centres undefined), the melting point lay in the range of 189 to 195 °C.
The value for `Cc1ccc2ccc(=O)oc2c1C` was 122 to 123 °C; that for `Cc1c(-c2ccccc2)oc2c(C(=O)NCCCCl)cccc2c1=O` was 193 to 194 °C.
`O=C(O)c1oc2ccc(Cl)cc2c1-c1ccccc1C(F)(F)F` came in with a melting point of 71 to 72 °C.
The value for `COc1ccc(C=NO)c(Cl)c1O` was 174 to 176 °C; that for `CC(=O)OC1CSC(Oc2cccnc2-c2cncnc2)C(OC(C)=O)C1OC(C)=O` (centres undefined) was 205 °C.
For `O=C(O)Cc1ccc(OCc2cc(Cl)ccc2C(=O)O)cc1`, the melting point lay in the range of 197 to 201 °C.
In turn, `COc1ccc(-c2nc3ncccc3o2)cc1OC1CCCC1` displayed a melting point of 108 to 109 °C.
Compound `COC(=O)C=CC(C)C1=CCC2C3CC=C4CC(OC(C)=O)CCC4(C)C3CCC12C` (centres undefined) came in with a melting point of 121 to 122 °C.
The compound `C[C@@H](Nc1ncnc2ccncc12)c1ccccc1` had a melting point of 138 °C.
Compound `CC(C)(C)C1=CC(=Cc2ccc(C#N)cc2)C=C(C(C)(C)C)C1=O` gave a melting point of 147 to 148 °C.
Regarding `CCOC(=O)C(=C1SC(=S)N(CC(=O)O)C1=O)c1csc(NC(C)=O)n1`, the melting point was in the range of 292 to 296 °C.
The value for `Cc1oc(-c2ccccc2)nc1COc1cccc(COc2ccc(CC(=O)O)cc2)c1` was 179 to 180 °C; that for `CCNc1nc(NC)cc(NS(=O)(=O)c2ccc(N)cc2)n1` was 261 to 263 °C; that for `COc1ccc(C2COCCOC2)c2sc(NC(=O)c3ccnc(CN4CCCC4)c3)nc12` was 108 to 111 °C.
The compound `Clc1nc2ccc(Br)cc2cc1Cc1ccccc1` came in with a melting point of 102 to 104 °C.
`O=C(CN1C(=O)C2(COc3ccc(-c4cccnc4)cc32)c2ccccc21)Nc1ccccc1F` (centres undefined): the melting point was in the range of 98 to 100 °C.
In turn, `C#Cc1cccc(-n2c(=O)oc3ccc(-c4ccc(F)cc4F)cc3c2=O)c1` showed a melting point of 195 to 196 °C.
